Data as given in US6800630B2, “Pyrimidine derivatives having antitumor effect” (Shionogi & Co., Ltd., priority 2000, dated 2004).
≈ marks a conversion by molar mass, not a printed value.

Legend:
Assay type in all cases: cell-based
[1] = system: signal derived from Ras oncogene products (DT-R cells, pRRE3-luc transfected v-ki-ras-transformed NIH373 cells); assay: Inhibitory effect against cellular signaling derived from Ras oncogene products: RRE-luciferase reporter, Minimal Active Concentration (MAC) at which DT-C and DT-R activities dissociate; settings: minimal concentration at which luciferase activities of DT-C and DT-R cells dissociated
Text: (§1) Test Example 1 Inhibitory effect against cellular signaling derived from Ras oncogene products
(§2) Based on the reporter plasmid (pGV-P (Toyo Ink, Japan)), in which luciferase gene was ligated to SV40-derived minimal promoter, we constructed a plasmid designated pRRE3-luc by inserting 3 copies of chemically synthesized oligonucleotides (Sequence: CAGGATATGACTCT, derived from mouse NVL-3 (M. A. Reddy et al.(1992)Mol. Endocrinol., 6, 1051)) into upstream of the promoter. v-ki-ras-transformed NIH373 cells (DT cells, provided by Dr. Makoto Noda (Kyoto Univ., School of medicine)) were transfected with this plasmid by liposome-mediated transfection and transfected cell lines stably incorporated and maintained each plasmid were obtained. We named pGV-P and pRRE3-transfected cell line as DT-C and DT-R, respectively and used in the assay described below.
(§3) i) All the cell lines were cultured in Dulbecco's Modified Essential Medium (DMEM: 10% Fetal Calf Serum(FCS: Hyclone, USA)) including […] kanamycin (Meiji Seika, Japan) in humidified incubator under condition of 5% CO2 at 37° C.
(§4) ii) DT-C and DT-R cells were seeded at 2500 cells/well into flat-bottom 96 well multiplate (Sumitomo bakelite) and incubated for 24 hours.
(§5) iii) Test compounds were prepared as 1 mg/ml DMSO solution.
(§6) iv) The solution of test compounds were added to the culture. Tested compounds are used at the concentration from […] to 0.51 ng/ml with 3-fold dilution.
(§7) v) After 24 hours, the culture supernatant was completely aspirated and 20 μl of cell-lysing solution (PGC-50 (Toyo Ink, Japan)) was added before cells were dried up. In order to lyse the cells completely, multiwell plates were left at room temperature for 10 to 30 min. The plates were wrapped up and stored at −20° C. till the day of measurement.
(§8) i) Melt the samples by putting 96 well multiplate at 37° C. and add 90 μl/well 25 mM Tris (pH 7.5).
(§9) ii) Transfer 50 μl of the sample (110 μl) to the 96 well microplate (Microlite 1 (Dynatech)) for measurement.
(§10) iii) Measure the samples by the luminometer, LUMINOUS CT9000D (Dia-Yatron, Japan). We used Pickagene luminescence kit PGL2000 or LT2.0 (Toyo Ink, Japan) as enzyme substrates for luminescence measurement (50 μl/well).
(§11) i) The luciferase activity of DT-C cells and DT-R cells were plotted in the graph where the relative activity and the compound concentration were expressed as Y-axis and X-axis, respectively. We judged by the degree of dissociation between the activities of DT-C cells and DT-R cells as an index.
ii) Concretely, efficacy of the compound was expressed by two values described below.
a) Among the points of concentration tested, the minimal concentration (Minimal Active Concentration: MAC), at which the activities of DT-C cells and DT-R cells dissociated, was shown as an index of efficacy of the compound.

[2] = system: DT-C cells (pGV-P transfected v-ki-ras-transformed NIH373 cells); assay: Luciferase activity of DT-C control cells (IC50-C), index of non-specific transcription-inhibitory effect or cytotoxicity; settings: tested concentration nearest to 50% inhibition in DT-C cells
Text: as §1, §2, §3, §4, §5, §6, §7, §8, §9, §10, §11
b) Among the points of concentration tested, the concentration which is the nearest to 50% inhibition concentration at DT-C cells (IC50-C), was shown as an index of non-specific transcription-inhibitory effect or of cytotoxicity. In case of positive compounds, 50% inhibition concentration in DT-C cells which was higher than the active concentration was expressed as IC50-C.

H460 = assay: In vitro cell growth inhibition test, MTT assay; settings: MTT assay 4 days after compound addition
Text: [The source words this procedure for another cell line and reports this cell line under the same test.] (§12) Test Example 2 In vitro cell growth inhibition test Cells and MTT assay
(§13) Human squamous lung cancer […], human squamous lung cancer Ma44, human lung adenocarcinoma A549, human colon cancer HT29 and human pancreas cancer PANC-1 were used.

human colon cancer HT29 = assay: In vitro cell growth inhibition test, MTT assay; settings: MTT assay 4 days after compound addition
Text: as §12, §13

[3] = system: human lung adenocarcinoma A549; assay: In vitro cell growth inhibition test, MTT assay; settings: MTT assay 4 days after compound addition
Text: as §12, §13

[4] = system: human pancreas cancer PANC-1; assay: In vitro cell growth inhibition test, MTT assay; settings: MTT assay 4 days after compound addition
Text: as §12, §13

[5] = system: human squamous lung cancer Ma44; assay: In vitro cell growth inhibition test, MTT assay; settings: MTT assay 4 days after compound addition
Text: as §12, §13

[6] = system: human squamous lung cancer RERF-RC-AI; assay: In vitro cell growth inhibition test, MTT assay; settings: MTT assay 4 days after compound addition
Text: as §12, §13

Row | SMILES | MAC (Minimal Active Concentration) [1] [µg/mL] | IC50 (IC50-C) [2] [µg/mL] | IC50 H460 (H460) [µg/mL] | IC50 HT-29 (human colon cancer HT29) [µg/mL] | IC50 A549 [3] [µg/mL] | IC50 PANC-1 [4] [µg/mL] | IC50 Ma44 [5] [µg/mL] | IC50 RERF-LC-AI [6] [µg/mL]
1 | CCCNC(=Nc1nc(C)ncc1CSc1nnc(-c2ccc(C)cc2)o1)SC [Compound A-17] | 0.0412 | >10 | 0.015 (≈ 0.035 µM) | 0.015 (≈ 0.035 µM) | 0.0174 (≈ 0.0406 µM) | 0.0107 (≈ 0.025 µM) | 0.0241 (≈ 0.0562 µM) | 0.0132 (≈ 0.0308 µM)
2 | CCCSC(=Nc1nc(C)ncc1CSc1nnc(-c2ccc(N)cc2)o1)NC [Compound A-15] | 0.00152 | >10 | 0.0153 (≈ 0.0356 µM) | 0.0103 (≈ 0.024 µM) | 0.0111 (≈ 0.0258 µM) | 0.0124 (≈ 0.0289 µM) | 0.0127 (≈ 0.0296 µM) | 0.0065 (≈ 0.0151 µM)
3 | CCNC(=Nc1nc(C)ncc1CSc1nnc(-c2ccc(N)cc2)o1)SCC [Compound A-14] | 0.0412 | >10 | – | 0.011 (≈ 0.0256 µM) | 0.012 (≈ 0.0279 µM) | 0.0098 (≈ 0.0228 µM) | 0.032 (≈ 0.0745 µM) | 0.012 (≈ 0.0279 µM)
4 | CCNC(=Nc1nc(C)ncc1CSc1nnc(-c2ccc(N)cc2)o1)SC [Compound A-11] | 0.0412 | >10 | – | 0.0067 (≈ 0.0161 µM) | 0.014 (≈ 0.0337 µM) | 0.0064 (≈ 0.0154 µM) | 0.077 (≈ 0.185 µM) | –
5 | CCNC(=Nc1nc(C)ncc1CSc1nnc(-c2ccc([N+](=O)[O-])cc2)o1)OCC [Compound A-33] | 0.0412 | >10 | – | 0.0066 (≈ 0.0149 µM) | 0.023 (≈ 0.0519 µM) | 0.0086 (≈ 0.0194 µM) | 0.0091 (≈ 0.0205 µM) | 0.0093 (≈ 0.021 µM)
6 | CNC(=Nc1nc(C)ncc1CSc1nnc(-c2ccc(N)cc2)o1)SC [Compound A-10] | 1.11 | >10 | – | – | – | – | 0.08 (≈ 0.199 µM) | –
7 | CCNC(=Nc1nc(C)ncc1C(C)Sc1nnc(-c2ccc([N+](=O)[O-])cc2)o1)SC (racemic) [Compound A-22] | 1.11 | >10 | – | – | – | – | 0.042 (≈ 0.0914 µM) | –
8 | CCNC(=Nc1nc(C)ncc1CSc1nnc(-c2ccc([N+](=O)[O-])cc2)o1)OC [Compound A-32] | 0.123 | >10 | – | 0.031 (≈ 0.0722 µM) | 0.064 (≈ 0.149 µM) | 0.034 (≈ 0.0792 µM) | 0.042 (≈ 0.0978 µM) | 0.031 (≈ 0.0722 µM)
9 | CCCNC(=Nc1nc(C)ncc1CSc1nnc(-c2ccc([N+](=O)[O-])cc2)o1)NN(C)C [Compound A-18] | 0.00457 | >10 | 0.0275 (≈ 0.0583 µM) | 0.0004 (≈ 0.000848 µM) | 0.0514 (≈ 0.109 µM) | 0.0004 (≈ 0.000848 µM) | 0.0004 (≈ 0.000848 µM) | 0.0004 (≈ 0.000848 µM)
10 | CNC(=Nc1nc(C)ncc1CSc1nnc(-c2ccc([N+](=O)[O-])cc2)o1)OC(C)C [Compound A-34] | 0.0137 | >10 | – | 0.0046 (≈ 0.0104 µM) | 0.021 (≈ 0.0474 µM) | 0.0075 (≈ 0.0169 µM) | 0.0091 (≈ 0.0205 µM) | 0.013 (≈ 0.0293 µM)
11 | CCNC(=Nc1nc(C)ncc1CSc1nnc(-c2ccc([N+](=O)[O-])cc2)o1)OC(C)C [Compound A-35] | 0.0412 | >10 | – | 0.0033 (≈ 0.00721 µM) | 0.011 (≈ 0.024 µM) | 0.0054 (≈ 0.0118 µM) | 0.0069 (≈ 0.0151 µM) | 0.0067 (≈ 0.0146 µM)
12 | CNC(=Nc1nc(C)ncc1CSc1nnc(-c2ccc([N+](=O)[O-])cc2)o1)SC [Compound A-1] | 1.11 | >10 | – | 0.045 (≈ 0.104 µM) | 0.0009 (≈ 0.00209 µM) | 0.046 (≈ 0.107 µM) | 0.12 (≈ 0.278 µM) | –
13 | CCCNC(=Nc1nc(C)ncc1CSc1nnc(-c2ccc([N+](=O)[O-])cc2)o1)SC [Compound A-4] | 0.37 | >10 | – | 0.023 (≈ 0.05 µM) | 0.038 (≈ 0.0827 µM) | 0.026 (≈ 0.0566 µM) | 0.051 (≈ 0.111 µM) | 0.03 (≈ 0.0653 µM)
14 | CCNC(=Nc1nc(C)ncc1C(C)Sc1nnc(-c2ccc([N+](=O)[O-])cc2)o1)NCC (racemic) [Compound A-23] | 3.33 | >10 | – | – | – | – | – | –
15 | CCCSC(=Nc1nc(C)ncc1CSc1nnc(-c2ccc(N)cc2)o1)NCC [Compound A-16] | <0.000508 | >10 | 0.0107 (≈ 0.0241 µM) | 0.0081 (≈ 0.0183 µM) | 0.0146 (≈ 0.0329 µM) | 0.0065 (≈ 0.0147 µM) | 0.0136 (≈ 0.0307 µM) | 0.0073 (≈ 0.0165 µM)
16 | CCNC(=Nc1nc(C)ncc1CSc1nnc(-c2ccc([N+](=O)[O-])cc2)o1)SC [Compound A-3] | 0.37 | >10 | – | 0.052 (≈ 0.117 µM) | 0.063 (≈ 0.141 µM) | 0.051 (≈ 0.114 µM) | 0.056 (≈ 0.126 µM) | 0.046 (≈ 0.103 µM)
17 | CCNC(=Nc1nc(C)ncc1CSc1nnc(-c2ccc([N+](=O)[O-])cc2)o1)SCC [Compound A-6] | 0.0412 | – | 0.0256 (≈ 0.0557 µM) | 0.0244 (≈ 0.0531 µM) | 0.0256 (≈ 0.0557 µM) | 0.0148 (≈ 0.0322 µM) | 0.0182 (≈ 0.0396 µM) | 0.015 (≈ 0.0326 µM)
18 | CNC(=Nc1nc(C)ncc1CSc1nnc(-c2ccc([N+](=O)[O-])cc2)o1)NCC(F)(F)F [Compound C-1, reference compound] | 0.0412 | – | – | 0.0066 (≈ 0.0137 µM) | 0.016 (≈ 0.0332 µM) | 0.0064 (≈ 0.0133 µM) | 0.011 (≈ 0.0228 µM) | –
19 | CCSC(=Nc1nc(C)ncc1CSc1nnc(-c2ccc(N)cc2)o1)NC [Compound A-13] | 0.0137 | – | – | 0.0089 (≈ 0.0214 µM) | 0.015 (≈ 0.0361 µM) | 0.0077 (≈ 0.0185 µM) | 0.03 (≈ 0.0722 µM) | –
20 | CCSC(=Nc1nc(C)ncc1CSc1nnc(-c2ccc([N+](=O)[O-])cc2)o1)NC [Compound A-5] | 0.123 | – | 0.089 (≈ 0.2 µM) | 0.0484 (≈ 0.109 µM) | 0.07 (≈ 0.157 µM) | 0.0665 (≈ 0.149 µM) | 0.0446 (≈ 0.1 µM) | 0.033 (≈ 0.0741 µM)
21 | C#CCNC(=Nc1nc(C)ncc1CSc1nnc(-c2ccc([N+](=O)[O-])cc2)o1)NC [Compound C-2, reference compound] | 0.0137 | >10 | – | 0.002 (≈ 0.00456 µM) | 0.0044 (≈ 0.01 µM) | 0.002 (≈ 0.00456 µM) | 0.0034 (≈ 0.00775 µM) | –
